From ChEMBL document CHEMBL1201862, “PubChem BioAssay data set” (2004)
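Protocol summary: plate cells (96-well), add compound at 5 concentrations, incubate 48 h, interpolate endpoints linearly. GI50 marks 50% less growth.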 Active and inactive are the calls of the source. Rule as the data show it: active = GI50 up to about 1.1 µM and inactive = higher.

What was measured:
Assay in all cases: NCI-60 cell line screen, 48 h
786-0 = system: 786-0
A498 = system: A498
A549 = system: A549
ACHN = system: ACHN
CAKI-1 = system: CAKI-1
CCRF-CEM = system: CCRF-CEM
COLO 205 = system: COLO 205
DLD-1 = system: DLD-1
DMS-114 = system: DMS-114
DMS-273 = system: DMS-273
EKVX = system: EKVX
HCC 2998 = system: HCC 2998
HCT-116 = system: HCT-116
HCT-15 = system: HCT-15
HL-60 = system: HL-60
HOP-18 = system: HOP-18
HOP-62 = system: HOP-62
HOP-92 = system: HOP-92
HT-29 = system: HT-29
IGROV-1 = system: IGROV-1
K562 = system: K562
KM-20L2 = system: KM-20L2
KM12 = system: KM12
LOX IMVI = system: LOX IMVI
LXFL 529 = system: LXFL 529
M14 = system: M14
M19-MEL = system: M19-MEL
MOLT-4 = system: MOLT-4
Malme-3M = system: Malme-3M
NCI-H226 = system: NCI-H226
NCI-H23 = system: NCI-H23
NCI-H460 = system: NCI-H460
NCI-H522 = system: NCI-H522
OVCAR-3 = system: OVCAR-3
OVCAR-4 = system: OVCAR-4
OVCAR-5 = system: OVCAR-5
OVCAR-8 = system: OVCAR-8
RPMI-8226 = system: RPMI-8226
RXF 393 = system: RXF 393
RXF 631 = system: RXF 631
SF-268 = system: SF-268
SF-295 = system: SF-295
SF-539 = system: SF-539
SK-MEL-28 = system: SK-MEL-28
SK-MEL-2 = system: SK-MEL-2
SK-MEL-5 = system: SK-MEL-5
SK-OV-3 = system: SK-OV-3
SN12C = system: SN12C
SNB-19 = system: SNB-19
SNB-75 = system: SNB-75
SNB-78 = system: SNB-78
SR = system: SR
SW-620 = system: SW-620
TK-10 = system: TK-10
U-251 = system: U-251
UACC-257 = system: UACC-257
UACC-62 = system: UACC-62
UO-31 = system: UO-31
XF498 = system: XF498

COc1c(OC2OC(CO)C(O)C(O)C2O)cc2c(c1OC)-c1ccc(OC)c(=O)cc1[C@@H](NC(C)=O)CC2 (some centres undefined) was tested, and the GI50 (786-0) was > 100 µM (inactive), the GI50 (A498) was > 100 µM (inactive) and the GI50 (A549) was > 100 µM (inactive). For the same compound, the GI50 (ACHN) was > 100 µM (inactive), the GI50 (CAKI-1) was > 100 µM (inactive) and the GI50 (CCRF-CEM) was 65.2 µM (inactive). The GI50 (COLO 205) was > 100 µM (inactive), the GI50 (DLD-1) was > 100 µM (inactive) and the GI50 (DMS-114) was 44.7 µM (inactive). The GI50 (DMS-273) was > 100 µM (inactive), the GI50 (EKVX) was > 100 µM (inactive) and the GI50 (HCC 2998) was > 93.3 µM (inactive). For the same compound, the GI50 (HCT-116) was > 100 µM (inactive), the GI50 (HCT-15) was over 100 µM and the GI50 (HL-60) was > 70.8 µM (inactive). For the same compound, the GI50 (HOP-18) was > 100 µM (inactive), the GI50 (HOP-62) was > 100 µM (inactive) and the GI50 (HOP-92) was 45.3 µM (inactive). For the same compound, the GI50 (HT-29) was > 100 µM (inactive), the GI50 (IGROV-1) was 83 µM (inactive) and the GI50 (K562) was 52.1 µM (inactive). The GI50 (KM-20L2) was > 100 µM (inactive), the GI50 (KM12) was 92.7 µM (inactive) and the GI50 (LOX IMVI) was > 100 µM (inactive). The GI50 (LXFL 529) was 54.1 µM (inactive), the GI50 (M14) was 76.4 µM (inactive) and the GI50 (M19-MEL) was 60.1 µM (inactive). For the same compound, the GI50 (MOLT-4) was > 100 µM (inactive), the GI50 (Malme-3M) was 61.5 µM (inactive) and the GI50 (NCI-H226) was > 100 µM (inactive). The GI50 (NCI-H23) was > 100 µM (inactive), the GI50 (NCI-H460) was > 100 µM (inactive) and the GI50 (NCI-H522) was 43.8 µM (inactive). For the same compound, the GI50 (OVCAR-3) was 39.5 µM (inactive), the GI50 (OVCAR-4) was > 100 µM (inactive) and the GI50 (OVCAR-5) was > 100 µM (inactive). The GI50 (OVCAR-8) was > 100 µM (inactive), the GI50 (RPMI-8226) was > 82.2 µM (inactive) and the GI50 (RXF 393) was 57.4 µM (inactive). The GI50 (RXF 631) was > 100 µM (inactive), the GI50 (SF-268) was > 56.2 µM (inactive) and the GI50 (SF-295) was > 89.7 µM (inactive). The GI50 (SF-539) was 64.9 µM (inactive), the GI50 (SK-MEL-28) was 59.4 µM (inactive) and the GI50 (SK-MEL-2) was 35.1 µM (inactive). For the same compound, the GI50 (SK-MEL-5) was 35.2 µM (inactive), the GI50 (SK-OV-3) was > 100 µM (inactive) and the GI50 (SN12C) was > 91 µM (inactive). For the same compound, the GI50 (SNB-19) was > 100 µM (inactive), the GI50 (SNB-75) was 25.8 µM (inactive) and the GI50 (SNB-78) was 61 µM (inactive). The GI50 (SR) was > 100 µM (inactive), the GI50 (SW-620) was > 81.8 µM (inactive) and the GI50 (TK-10) was > 100 µM (inactive). For the same compound, the GI50 (U-251) was > 100 µM (inactive), the GI50 (UACC-257) was > 84.5 µM (inactive) and the GI50 (UACC-62) was 51.5 µM (inactive). The GI50 (UO-31) was > 100 µM (inactive) and the GI50 (XF498) was 29.3 µM (inactive).
